Experimental data from publication PMC12022903, “Evaluation of drug-drug interaction between Suraxavir Marboxil (GP681) and itraconazole, and assessment of the impact of gene polymorphism” (Frontiers in Pharmacology, 2025).
Where “and” joins values, the source holds several entries; their conditions need not be identical. Equal values may be shown once.

Legend:
[1] = Pharmacokinetic parameters of GP1707D07 (HPLC-MS/MS, non-compartmental) in the GP681-itraconazole drug-drug interaction study; format: in vivo, healthy Chinese subjects; conditions: for MRT0-t / MRT0-∞ / Tmax / Vz/F / t1/2 / λz / AUC0-t / AUC0-∞ / AUC_%Extrap / CL/F / Cmax: Period 2, GP681 20 mg + itraconazole
Description: This single-center, open-label, self-controlled, fixed-sequence study, sponsored by Qingfeng Pharmaceutical Group Co., Ltd., was conducted at a single clinical research site in the China–Japan Friendship Hospital (Beijing, China). Each subject received the following treatment: Suraxavir Marboxil (GP681) 20 mg in the fasted state on day 1 and day 26. Itraconazole capsules (Sporanox®: Xi’an Yangsen Pharmaceutical Co., Ltd., China) 0.2 g twice daily (BID, bis in die) on day 22. Itraconazole 0.2 g daily from day 23 to day 36 [including day 26, when itraconazole was co-administrated with Suraxavir Marboxil (GP681)]. The washout period is 21 days (Figure 2). It should be noted that in the following sections, when discussing the PK profile, this study was divided into Period 1 (Suraxavir Marboxil (GP681) monotherapy, from day −1 to day 12), and Period 2 (Suraxavir Marboxil (GP681)-itraconazole co-administration, from day 21 to day 36). When discussion the safety profile, this study was divided into Stage 1 (Suraxavir Marboxil (GP681) monotherapy stage, from day 1 to day 21), Stage 2 (itraconazole monotherapy stage, from day 22 to day 25), and Stage 3 (Suraxavir Marboxil (GP681)-itraconazole co-administration stage, from d 26 to d 36).
Blood samples were collected at the following time points: pre–dose, 0.5, 1, 2, 3, 4, 5, 6, 8, 12, 24, 36, 48, 72, 120, 168, and 264 h post-dose on day 1 and day 26. In addition, a blood sample were collected before dosing on day 1 for genetic polymorphism assessment.
A validated high-performance liquid chromatography-tandem mass spectrometry (HPLC-MS/MS) method was used to determine plasma concentrations of Suraxavir Marboxil (GP681) and its active metabolite GP1707D07 at different times, with the quantification range of 0.3/0.3–300/300 ng/mL for Suraxavir Marboxil (GP681) and GP1707D07. The lower limit of quantification (LLOQ) for both compounds was 0.300 ng/mL. Phoenix® WinNonlin® 8.3 was used to estimate and analyze the pharmacokinetic parameters of non-compartmental model from plasma concentration data. Pharmacokinetic parameters included: maximum plasma concentration (Cmax), area under the plasma concentration-time curve extrapolated from time zero to infinity (AUC0- ∞ ), time to Cmax (Tmax), half-life (t1/2), λz, AUC_%Extrap, Vz/F, CL/F, and mean residence time (MRT).
Statistical analysis was performed using SAS (version 9.4 or above) software programming. Pharmacokinetic concentration analysis was based on Pharmacokinetic Analysis Concentration Set (PKCS). Individual and mean concentrations (mean ± SD) were plotted against planned blood sampling time points for the analyte on linear and semi-log scales. Pharmacokinetic parameter analysis was based on Pharmacokinetic Analysis Parameter Set (PKPS). Drug interaction analysis was based on Drug Interaction Set (DIS). The geometric mean ratios and their 90% confidence intervals of pharmacokinetic parameters Cmax, AUC0-t, and AUC0- ∞ under Suraxavir Marboxil (GP681) single dose and Suraxavir Marboxil (GP681)-itraconazole co-administration conditions were calculated after natural logarithm transformation, using a linear mixed effects model with subjects as random effects and treatment (combined/single) as fixed effects.
1.3 Pharmacokinetic Sample Collection and Processing: Pharmacokinetic Analysis: Approximately 4 mL of blood is collected each time into a tube containing sodium fluoride/potassium oxalate as an anticoagulant. The tube is then placed upright in an ice-water bath. The plasma samples are separated by centrifugation for the detection of GP681/GP1707D07 blood drug concentrations. Both sample collection and processing are conducted under white light conditions. […]

[2] = system: liver enzymes; set-up: method as in unpublished data; conditions: preclinical studies; ref unpublished data; cited from earlier work
[3] = mean (SD), N = 4 (8 subjects with %AUCextrap >20% not included)

O=C1c2c(O)c(=O)ccn2N([C@@H]2c3ccccc3SCc3c2ccc(F)c3F)[C@@H]2COC3(CC3)CN12 [GP1707D07]
MRT0-t ([1]; geometric mean, N=12): 91.828 h | MRT0-∞ ([1]; geometric mean, N=12): 170.5 h and 170.494 h | Tmax ([1]; geometric mean, N=12): 4.4 h | Vz/F ([1]; geometric mean, N=12): 1365.672 L | t1/2 ([1]; geometric mean, N=12): 125.561 h | λz ([1]; geometric mean, N=12): 0.0055 h⁻¹ | AUC0-t ([1]; individual subjects): 2991.14 ng·h/mL and 2032.39 ng·h/mL and 1353.85 ng·h/mL and 2127.20 ng·h/mL and 1044.79 ng·h/mL and 2764.96 ng·h/mL and 1661.62 ng·h/mL and 2484.54 ng·h/mL and 2488.27 ng·h/mL and 2757.79 ng·h/mL and 1586.83 ng·h/mL and 2524.54 ng·h/mL and 2991.1 ng·h/mL and 2032.4 ng·h/mL and 1353.9 ng·h/mL and 1044.8 ng·h/mL and 2765.0 ng·h/mL and 1661.6 ng·h/mL and 2484.5 ng·h/mL and 2488.3 ng·h/mL and 2757.8 ng·h/mL and 1586.8 ng·h/mL and 2524.5 ng·h/mL | AUC0-∞ ([1]; individual subjects): 4071.31 ng·h/mL and 2952.73 ng·h/mL and 1815.81 ng·h/mL and 2809.94 ng·h/mL and 1322.58 ng·h/mL and 3386.84 ng·h/mL and 1943.92 ng·h/mL and 3038.12 ng·h/mL and 3010.01 ng·h/mL and 3496.61 ng·h/mL and 2164.09 ng·h/mL and 3287.23 ng·h/mL | AUC_%Extrap ([1]; individual subjects): 26.53% and 31.17% and 25.44% and 24.30% and 21.00% and 18.36% and 14.52% and 18.22% and 17.33% and 21.13% and 26.67% and 23.20% | CL/F ([1]; individual subjects): 4.91 L/h and 6.77 L/h and 11.01 L/h and 7.12 L/h and 15.12 L/h and 5.91 L/h and 10.29 L/h and 6.58 L/h and 6.64 L/h and 5.72 L/h and 9.24 L/h and 6.08 L/h | Cmax ([1]; individual subjects): 30.409 ng/mL and 21.586 ng/mL and 13.021 ng/mL and 20.877 ng/mL and 9.944 ng/mL and 32.652 ng/mL and 20.426 ng/mL and 33.588 ng/mL and 31.705 ng/mL and 26.988 ng/mL and 14.549 ng/mL and 26.492 ng/mL and 30.4 ng/mL and 21.6 ng/mL and 13.0 ng/mL and 20.9 ng/mL and 9.9 ng/mL and 32.7 ng/mL and 20.4 ng/mL and 33.6 ng/mL and 31.7 ng/mL and 27.0 ng/mL and 14.5 ng/mL and 26.5 ng/mL | MRT0-t ([1]; individual subjects): 95.36 h and 94.95 h and 95.71 h and 95.46 h and 92.09 h and 90.98 h and 84.46 h and 87.34 h and 83.83 h and 94.91 h and 93.53 h and 94.49 h | MRT0-∞ ([1]; individual subjects): 196.38 h and 225.05 h and 182.53 h and 178.20 h and 165.60 h and 151.62 h and 129.66 h and 149.99 h and 143.87 h and 168.40 h and 198.32 h and 178.88 h | Tmax ([1]; individual subjects): 6 h and 4 h and 5 h and 3 h | Vz/F ([1]; individual subjects): 1042.08 L and 1684.38 L and 1909.99 L and 1224.96 L and 2694.46 L and 929.93 L and 1355.33 L and 1100.32 L and 1104.05 L and 1021.99 L and 2056.61 L and 1181.94 L | t1/2 ([1]; individual subjects): 147.04 h and 172.37 h and 120.20 h and 119.29 h and 123.51 h and 109.15 h and 91.31 h and 115.86 h and 115.17 h and 123.85 h and 154.25 h and 134.65 h | λz ([1]; individual subjects): 0.005 h⁻¹ and 0.004 h⁻¹ and 0.006 h⁻¹ and 0.008 h⁻¹ | AUC0-∞ [1, 3]: 2,844.7 (624.5) (N = 4) h*ng/mL | CL/F [1, 3]: 7.4 (2.0) (N = 4) L/h | Vz/F [1, 3]: 1,122.4 (175.2) (N = 4) L | t1/2 [1, 3]: 107.9 (11.4) (N = 4) h | λz [1, 3]: 0.007 (0.0008) (N = 4) h-1 | AUC_%Extrap ([1]; mean, all 12 subjects): 22.3 (4.8) % and 22.324% | CL/F ([1]; mean, all 12 subjects): 8.0 (2.9) L/h and 7.951 L/h | Cmax ([1]; mean, all 12 subjects): 23.5 (8.1) ng/mL and 23.5198 ng/mL | MRT0-t ([1]; mean, all 12 subjects): 91.9 (4.4) h and 91.926 h | MRT0-∞ ([1]; mean, all 12 subjects): 172.4 (26.7) h and 172.374 h | Tmax ([1]; mean, all 12 subjects): 4.5 h | t1/2 ([1]; mean, all 12 subjects): 127.2 (21.8) h and 127.221 h | λz ([1]; mean, all 12 subjects): 0.006 (0.0009) h-1 and 0.0056 h-1 | Tmax ([1]; median (range), N=12): 4.5 (3.0–6.0) h | AUC0-t ([1]; median, N=12): 2305.872 ng·h/mL | AUC0-∞ ([1]; median, N=12): 2981.370 ng·h/mL | AUC_%Extrap ([1]; median, N=12): 22.166% | CL/F ([1]; median, N=12): 6.709 L/h | Cmax ([1]; median, N=12): 24.0390 ng/mL | MRT0-t ([1]; median, N=12): 94.010 h | MRT0-∞ ([1]; median, N=12): 173.300 h | Vz/F ([1]; median, N=12): 1203.452 L | t1/2 ([1]; median, N=12): 121.852 h | λz ([1]; median, N=12): 0.0057 h⁻¹ | half-life ([1]; Period 2, GP681 + itraconazole, statistic not stated (discussion)): 107.4 h | increase of AUC0-t in Period 2 compared to Period 1 ([1]; arithmetic means): 107% | increase of AUC0-∞ in Period 2 compared to Period 1 ([1]; arithmetic means): 153% | increase of Cmax in Period 2 compared to Period 1 ([1]; arithmetic means): 22% | AUC0-t Ratio Period 2/Period 1 ([1]; individual subjects): 7.8 and 2.8 and 1.7 and 2.2 and 1.8 and 1.4 and 1.9 and 2.0 and 2.1 | Cmax Ratio Period 2/Period 1 ([1]; individual subjects): 8.0 and 1.7 and 0.8 and 1.8 and 1.3 and 1.6 and 1.1 and 0.6 | inhibition or induction of liver enzymes [2]: do not significantly inhibit or induce liver enzymes
